Holding throughout (assay): In vitro kinase inhibition assay (HotSpot, Reaction Biology)
What all share (format): biochemical

Experiment [1] deals with T1, PAK1 (Homo sapiens, UniProt Q13153).
T1 construct: purchased Reaction Biology Corp
The conditions noted are these: single dose of 10 µM; read-out: Percent Inhibition, PAK1.

The target of experiment [2] is T2, CDK2/cyclin A (Homo sapiens, UniProt P24941).
T2 construct: purchased Reaction Biology Corp
Conditions: single dose of 10 µM; 10 µM ATP as printed; read-out: Percent Inhibition, CDK2/cyclin A.

Experiment [3] concerns the target T3, EGFR (Homo sapiens, UniProt P00533).
T3 construct: purchased Reaction Biology Corp
The conditions noted are these: single dose of 10 µM; 10 µM ATP as printed; read-out: Percent Inhibition, EGFR.

The target of experiment [4] is T4, KDR/VEGFR2 (Homo sapiens, UniProt P35968).
T4 construct: purchased Reaction Biology Corp
The conditions noted are these: single dose of 10 µM; 10 µM ATP as printed; read-out: Percent Inhibition, KDR/VEGFR2.

T3 sequence (P00533 25-1210): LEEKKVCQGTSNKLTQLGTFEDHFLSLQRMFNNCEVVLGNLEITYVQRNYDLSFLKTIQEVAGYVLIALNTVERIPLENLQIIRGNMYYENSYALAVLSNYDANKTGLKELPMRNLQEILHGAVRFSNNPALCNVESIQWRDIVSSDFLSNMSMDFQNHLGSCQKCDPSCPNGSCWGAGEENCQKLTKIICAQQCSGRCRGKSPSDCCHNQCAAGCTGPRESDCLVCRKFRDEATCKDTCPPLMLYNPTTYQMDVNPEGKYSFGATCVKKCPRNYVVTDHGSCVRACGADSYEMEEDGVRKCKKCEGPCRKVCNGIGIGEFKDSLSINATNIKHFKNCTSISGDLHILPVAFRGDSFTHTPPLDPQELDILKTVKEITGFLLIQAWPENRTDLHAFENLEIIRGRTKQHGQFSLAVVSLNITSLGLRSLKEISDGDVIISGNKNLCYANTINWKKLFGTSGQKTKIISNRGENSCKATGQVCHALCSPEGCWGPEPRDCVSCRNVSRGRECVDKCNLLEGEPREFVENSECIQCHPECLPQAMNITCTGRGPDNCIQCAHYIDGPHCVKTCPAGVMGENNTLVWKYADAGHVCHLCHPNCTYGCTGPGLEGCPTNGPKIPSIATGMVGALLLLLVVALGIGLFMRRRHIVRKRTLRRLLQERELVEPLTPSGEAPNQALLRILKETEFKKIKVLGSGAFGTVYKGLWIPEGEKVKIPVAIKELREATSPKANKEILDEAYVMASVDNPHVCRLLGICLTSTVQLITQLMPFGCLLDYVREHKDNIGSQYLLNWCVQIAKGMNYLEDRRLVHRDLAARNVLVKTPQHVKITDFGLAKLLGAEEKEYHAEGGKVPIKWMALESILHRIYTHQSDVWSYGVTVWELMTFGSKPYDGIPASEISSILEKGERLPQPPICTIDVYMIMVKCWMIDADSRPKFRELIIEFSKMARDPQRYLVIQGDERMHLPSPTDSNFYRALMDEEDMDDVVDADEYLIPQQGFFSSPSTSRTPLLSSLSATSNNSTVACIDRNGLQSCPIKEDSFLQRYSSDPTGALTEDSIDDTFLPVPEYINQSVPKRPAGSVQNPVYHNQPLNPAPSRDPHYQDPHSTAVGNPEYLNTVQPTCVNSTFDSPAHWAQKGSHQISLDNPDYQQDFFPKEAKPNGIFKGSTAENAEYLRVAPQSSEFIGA
T4 sequence (P35968 20-1356): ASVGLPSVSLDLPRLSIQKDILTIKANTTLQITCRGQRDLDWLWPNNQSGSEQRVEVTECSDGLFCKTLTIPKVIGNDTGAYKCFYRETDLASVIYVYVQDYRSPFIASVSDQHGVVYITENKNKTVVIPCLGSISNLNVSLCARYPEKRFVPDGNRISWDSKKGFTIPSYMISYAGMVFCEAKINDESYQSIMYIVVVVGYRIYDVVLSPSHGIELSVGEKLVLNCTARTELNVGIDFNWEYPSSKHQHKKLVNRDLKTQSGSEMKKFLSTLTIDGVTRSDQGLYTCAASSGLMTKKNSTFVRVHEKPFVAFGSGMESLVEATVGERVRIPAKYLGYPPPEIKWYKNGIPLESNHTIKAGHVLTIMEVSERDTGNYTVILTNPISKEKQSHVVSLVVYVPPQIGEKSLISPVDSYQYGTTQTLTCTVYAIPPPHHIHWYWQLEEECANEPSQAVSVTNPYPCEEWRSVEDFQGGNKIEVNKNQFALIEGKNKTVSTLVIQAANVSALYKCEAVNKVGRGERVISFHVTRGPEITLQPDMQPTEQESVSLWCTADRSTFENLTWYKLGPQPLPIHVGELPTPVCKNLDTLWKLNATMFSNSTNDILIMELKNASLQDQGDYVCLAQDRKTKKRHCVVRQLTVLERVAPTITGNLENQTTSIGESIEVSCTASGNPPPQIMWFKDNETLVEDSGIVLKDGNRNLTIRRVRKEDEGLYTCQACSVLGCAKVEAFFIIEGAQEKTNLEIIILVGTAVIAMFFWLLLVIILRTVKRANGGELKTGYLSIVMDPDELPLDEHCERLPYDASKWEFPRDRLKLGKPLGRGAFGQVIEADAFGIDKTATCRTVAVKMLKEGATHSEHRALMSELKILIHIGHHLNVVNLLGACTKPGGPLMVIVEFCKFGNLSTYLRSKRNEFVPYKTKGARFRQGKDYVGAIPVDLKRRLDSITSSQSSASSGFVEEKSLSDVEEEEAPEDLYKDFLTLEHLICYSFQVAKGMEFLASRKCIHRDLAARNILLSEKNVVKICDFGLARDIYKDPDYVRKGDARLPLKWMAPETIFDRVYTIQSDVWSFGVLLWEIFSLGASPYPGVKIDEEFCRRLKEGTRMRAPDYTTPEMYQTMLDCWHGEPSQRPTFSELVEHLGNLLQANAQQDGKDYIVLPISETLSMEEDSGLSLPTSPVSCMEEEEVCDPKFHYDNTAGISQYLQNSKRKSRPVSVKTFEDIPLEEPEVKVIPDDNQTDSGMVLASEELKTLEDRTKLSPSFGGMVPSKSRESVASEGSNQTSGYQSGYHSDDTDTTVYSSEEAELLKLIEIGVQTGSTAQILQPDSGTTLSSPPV
T1 sequence (Q13153 whole entry): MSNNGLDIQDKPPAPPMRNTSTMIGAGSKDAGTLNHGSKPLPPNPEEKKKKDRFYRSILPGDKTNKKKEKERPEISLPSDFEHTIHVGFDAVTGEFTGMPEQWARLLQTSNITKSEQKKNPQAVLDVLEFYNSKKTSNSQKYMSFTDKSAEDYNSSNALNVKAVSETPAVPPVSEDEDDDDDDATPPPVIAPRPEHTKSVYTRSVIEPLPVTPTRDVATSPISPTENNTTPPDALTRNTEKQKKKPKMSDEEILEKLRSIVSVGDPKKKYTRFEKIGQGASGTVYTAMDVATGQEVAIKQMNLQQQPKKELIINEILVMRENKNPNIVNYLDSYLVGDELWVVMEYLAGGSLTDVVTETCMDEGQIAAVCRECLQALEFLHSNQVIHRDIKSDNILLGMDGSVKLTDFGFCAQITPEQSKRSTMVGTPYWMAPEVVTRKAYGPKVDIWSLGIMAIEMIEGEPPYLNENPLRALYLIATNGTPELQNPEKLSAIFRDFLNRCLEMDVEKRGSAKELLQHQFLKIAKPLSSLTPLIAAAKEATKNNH

For the compound `COc1ccc(Oc2nc(Nc3ccc(N4CCOCC4)cc3)ncc2NC(=O)c2ccc3c(c2)OCO3)cc1` [5a, N-(4-(4-Methoxyphenoxy)-2-((4-morpholinophenyl)amino)pyrimidin-5-yl)benzo[d][1,3]dioxole-5-carboxamide], the inhibition at 10 µM was -29.1 ± 3.4% in experiment [1], 20.1 ± 0.1% in experiment [2], 27 ± 0.9% in experiment [3] and 7.9 ± 1.4% in experiment [4].

The values above are taken from article PMC8468039, “Development of New Meridianin/Leucettine-Derived Hybrid Small Molecules as Nanomolar Multi-Kinase Inhibitors with Antitumor Activity” (Biomedicines, 2021).
